Laboratory results: the supplement of paper PMC12463676, “Small-molecule dissolution of stress granules by redox modulation benefits ALS models” (Nature Chemical Biology, 2025)

Columns and labels:
potassium arsenate = compound: O=[As]([O-])(O)O.[K+] [potassium arsenate]; test: thermal stability z-score vs DMSO; higher = more thermally stabilized by treatment; conditions: HeLa; arsenate concentration 1 mM
Method: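 Cellular thermal proteome profiling in HeLa cells treated with 1 mM arsenate for 1 h (DMSO pretreatment), heated to ten temperatures (37-66.3 °C). Soluble protein was quantified by TMT mass spectrometry relative to DMSO controls; the thermal stability score was transformed to a z-score; mean of n = 3 experiments.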

lipoamide = compound: NC(=O)CCCCC1CCSS1 [lipoamide]; test: as above; conditions: HeLa, lipoamide concentration 100 µM
Method: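 Cellular thermal proteome profiling in HeLa cells. Cells were treated with 100 µM lipoamide for 1 h, with or without 1 mM arsenate for a further 1 h, then heated to ten temperatures (37-66.3 °C), and soluble protein was quantified by TMT mass spectrometry relative to 0.1% DMSO controls. The thermal stability score (sum of log2 fold changes minus the abundance score) was transformed to a z-score; mean of n = 3 experiments.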

[1] = arsenate co-treatment: 1 mM arsenate 1 h
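Also: each temperature applied for 3 min, abundance score taken as mean log2 fold change at the two lowest temperatures, z-score obtained by mean subtraction and division by SD.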

UniProt Q9BX95, sequence (Q9BX95 whole entry): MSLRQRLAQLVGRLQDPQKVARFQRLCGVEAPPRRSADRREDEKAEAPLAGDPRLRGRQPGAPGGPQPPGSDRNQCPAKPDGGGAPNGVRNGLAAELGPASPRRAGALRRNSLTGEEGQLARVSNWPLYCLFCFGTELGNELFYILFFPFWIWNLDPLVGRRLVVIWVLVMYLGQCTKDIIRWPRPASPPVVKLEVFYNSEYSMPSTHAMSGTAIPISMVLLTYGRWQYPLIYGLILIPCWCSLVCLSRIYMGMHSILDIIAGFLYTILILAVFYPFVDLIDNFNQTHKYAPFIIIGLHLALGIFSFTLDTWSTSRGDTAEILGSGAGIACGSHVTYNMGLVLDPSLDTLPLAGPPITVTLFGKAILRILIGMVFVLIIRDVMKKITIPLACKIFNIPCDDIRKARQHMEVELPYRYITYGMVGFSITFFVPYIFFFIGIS
UniProt Q99720, sequence (Q99720 whole entry): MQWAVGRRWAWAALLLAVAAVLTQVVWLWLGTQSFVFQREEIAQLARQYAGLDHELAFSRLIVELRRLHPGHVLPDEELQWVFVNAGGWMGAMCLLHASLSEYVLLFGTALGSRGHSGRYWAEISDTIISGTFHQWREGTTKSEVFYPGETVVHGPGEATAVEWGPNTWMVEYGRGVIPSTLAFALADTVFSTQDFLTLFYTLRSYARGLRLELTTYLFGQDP
UniProt Q9NXA8, sequence (Q9NXA8 whole entry, looked up): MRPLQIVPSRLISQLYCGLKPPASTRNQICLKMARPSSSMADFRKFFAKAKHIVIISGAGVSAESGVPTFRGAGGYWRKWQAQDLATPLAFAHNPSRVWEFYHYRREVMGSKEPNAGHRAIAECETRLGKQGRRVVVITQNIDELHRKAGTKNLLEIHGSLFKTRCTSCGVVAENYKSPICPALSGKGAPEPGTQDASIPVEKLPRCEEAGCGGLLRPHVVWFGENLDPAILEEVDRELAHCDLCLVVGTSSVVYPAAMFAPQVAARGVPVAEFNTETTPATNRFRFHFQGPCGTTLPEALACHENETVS
UniProt Q9Y6M7, sequence (Q9Y6M7 whole entry): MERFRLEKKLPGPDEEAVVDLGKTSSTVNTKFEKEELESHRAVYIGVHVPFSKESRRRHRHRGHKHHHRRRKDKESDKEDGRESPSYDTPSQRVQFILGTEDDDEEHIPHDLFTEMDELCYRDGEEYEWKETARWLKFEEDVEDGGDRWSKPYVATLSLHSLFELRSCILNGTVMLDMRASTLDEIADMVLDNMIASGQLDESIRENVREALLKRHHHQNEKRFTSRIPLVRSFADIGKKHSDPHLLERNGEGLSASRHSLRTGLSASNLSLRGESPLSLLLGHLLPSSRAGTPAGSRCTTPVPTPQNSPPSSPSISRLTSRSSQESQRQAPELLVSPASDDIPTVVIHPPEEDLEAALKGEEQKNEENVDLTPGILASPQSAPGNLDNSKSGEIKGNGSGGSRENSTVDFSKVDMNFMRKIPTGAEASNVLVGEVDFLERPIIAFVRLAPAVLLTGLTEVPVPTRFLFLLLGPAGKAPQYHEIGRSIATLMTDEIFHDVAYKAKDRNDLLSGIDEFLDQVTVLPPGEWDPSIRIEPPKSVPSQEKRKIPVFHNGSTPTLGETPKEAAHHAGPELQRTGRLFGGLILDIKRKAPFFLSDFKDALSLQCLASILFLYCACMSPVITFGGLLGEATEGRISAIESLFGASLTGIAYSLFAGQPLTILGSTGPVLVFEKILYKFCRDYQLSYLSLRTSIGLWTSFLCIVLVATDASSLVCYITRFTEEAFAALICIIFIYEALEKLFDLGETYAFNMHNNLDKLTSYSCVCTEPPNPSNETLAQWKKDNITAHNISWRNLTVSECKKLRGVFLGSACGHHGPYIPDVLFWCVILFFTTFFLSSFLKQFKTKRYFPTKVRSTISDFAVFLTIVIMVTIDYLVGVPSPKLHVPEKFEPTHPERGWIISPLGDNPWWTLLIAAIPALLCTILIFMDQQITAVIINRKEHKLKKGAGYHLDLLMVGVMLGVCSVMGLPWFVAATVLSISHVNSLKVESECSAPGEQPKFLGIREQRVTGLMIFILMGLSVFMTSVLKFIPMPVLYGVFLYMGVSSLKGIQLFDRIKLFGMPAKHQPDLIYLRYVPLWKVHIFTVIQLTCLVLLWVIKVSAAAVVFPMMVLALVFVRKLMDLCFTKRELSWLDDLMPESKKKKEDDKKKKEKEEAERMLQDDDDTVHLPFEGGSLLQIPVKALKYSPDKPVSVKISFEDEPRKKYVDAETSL
UniProt Q9Y371, sequence (Q9Y371 whole entry): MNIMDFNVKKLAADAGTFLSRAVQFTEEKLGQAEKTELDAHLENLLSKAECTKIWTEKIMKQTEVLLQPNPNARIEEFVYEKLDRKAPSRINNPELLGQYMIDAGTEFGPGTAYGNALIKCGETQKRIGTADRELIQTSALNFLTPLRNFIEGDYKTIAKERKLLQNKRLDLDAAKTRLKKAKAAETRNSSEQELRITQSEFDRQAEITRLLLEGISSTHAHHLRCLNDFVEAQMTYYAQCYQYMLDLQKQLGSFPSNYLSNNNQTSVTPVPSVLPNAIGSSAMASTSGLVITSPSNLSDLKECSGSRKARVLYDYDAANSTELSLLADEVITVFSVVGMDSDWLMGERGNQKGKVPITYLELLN
UniProt Q9BWU0, sequence (Q9BWU0 whole entry): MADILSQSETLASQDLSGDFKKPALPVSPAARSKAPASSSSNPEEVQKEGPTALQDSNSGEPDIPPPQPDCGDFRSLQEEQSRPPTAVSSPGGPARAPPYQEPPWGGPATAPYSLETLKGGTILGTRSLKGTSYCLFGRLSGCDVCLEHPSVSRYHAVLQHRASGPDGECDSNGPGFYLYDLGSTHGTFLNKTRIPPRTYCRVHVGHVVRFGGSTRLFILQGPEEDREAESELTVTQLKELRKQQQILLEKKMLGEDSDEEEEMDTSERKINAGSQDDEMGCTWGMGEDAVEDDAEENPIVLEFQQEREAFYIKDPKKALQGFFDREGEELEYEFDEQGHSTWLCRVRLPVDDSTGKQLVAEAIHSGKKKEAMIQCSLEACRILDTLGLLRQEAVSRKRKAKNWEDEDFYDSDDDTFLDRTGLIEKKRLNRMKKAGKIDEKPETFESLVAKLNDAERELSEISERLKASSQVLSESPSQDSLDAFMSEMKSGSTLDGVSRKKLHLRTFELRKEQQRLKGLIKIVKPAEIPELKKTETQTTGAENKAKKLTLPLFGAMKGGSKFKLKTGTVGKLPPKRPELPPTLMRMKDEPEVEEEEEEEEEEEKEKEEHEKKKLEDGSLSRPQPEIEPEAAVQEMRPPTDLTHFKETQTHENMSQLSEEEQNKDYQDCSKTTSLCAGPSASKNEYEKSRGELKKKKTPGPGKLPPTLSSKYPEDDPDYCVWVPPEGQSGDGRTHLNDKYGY
UniProt Q9H788, sequence (Q9H788 whole entry, looked up): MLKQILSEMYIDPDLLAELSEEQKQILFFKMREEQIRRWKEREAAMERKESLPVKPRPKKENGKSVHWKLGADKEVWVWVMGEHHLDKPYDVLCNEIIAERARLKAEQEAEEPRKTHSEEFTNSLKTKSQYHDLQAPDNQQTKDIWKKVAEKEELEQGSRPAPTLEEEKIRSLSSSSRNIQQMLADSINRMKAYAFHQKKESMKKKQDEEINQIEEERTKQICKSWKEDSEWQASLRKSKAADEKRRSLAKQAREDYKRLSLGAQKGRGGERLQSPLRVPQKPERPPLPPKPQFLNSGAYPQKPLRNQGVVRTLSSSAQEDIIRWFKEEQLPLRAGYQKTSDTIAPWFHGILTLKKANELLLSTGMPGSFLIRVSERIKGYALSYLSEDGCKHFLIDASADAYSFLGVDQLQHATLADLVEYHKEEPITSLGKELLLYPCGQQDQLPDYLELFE
UniProt Q96FS4, sequence (Q96FS4 whole entry): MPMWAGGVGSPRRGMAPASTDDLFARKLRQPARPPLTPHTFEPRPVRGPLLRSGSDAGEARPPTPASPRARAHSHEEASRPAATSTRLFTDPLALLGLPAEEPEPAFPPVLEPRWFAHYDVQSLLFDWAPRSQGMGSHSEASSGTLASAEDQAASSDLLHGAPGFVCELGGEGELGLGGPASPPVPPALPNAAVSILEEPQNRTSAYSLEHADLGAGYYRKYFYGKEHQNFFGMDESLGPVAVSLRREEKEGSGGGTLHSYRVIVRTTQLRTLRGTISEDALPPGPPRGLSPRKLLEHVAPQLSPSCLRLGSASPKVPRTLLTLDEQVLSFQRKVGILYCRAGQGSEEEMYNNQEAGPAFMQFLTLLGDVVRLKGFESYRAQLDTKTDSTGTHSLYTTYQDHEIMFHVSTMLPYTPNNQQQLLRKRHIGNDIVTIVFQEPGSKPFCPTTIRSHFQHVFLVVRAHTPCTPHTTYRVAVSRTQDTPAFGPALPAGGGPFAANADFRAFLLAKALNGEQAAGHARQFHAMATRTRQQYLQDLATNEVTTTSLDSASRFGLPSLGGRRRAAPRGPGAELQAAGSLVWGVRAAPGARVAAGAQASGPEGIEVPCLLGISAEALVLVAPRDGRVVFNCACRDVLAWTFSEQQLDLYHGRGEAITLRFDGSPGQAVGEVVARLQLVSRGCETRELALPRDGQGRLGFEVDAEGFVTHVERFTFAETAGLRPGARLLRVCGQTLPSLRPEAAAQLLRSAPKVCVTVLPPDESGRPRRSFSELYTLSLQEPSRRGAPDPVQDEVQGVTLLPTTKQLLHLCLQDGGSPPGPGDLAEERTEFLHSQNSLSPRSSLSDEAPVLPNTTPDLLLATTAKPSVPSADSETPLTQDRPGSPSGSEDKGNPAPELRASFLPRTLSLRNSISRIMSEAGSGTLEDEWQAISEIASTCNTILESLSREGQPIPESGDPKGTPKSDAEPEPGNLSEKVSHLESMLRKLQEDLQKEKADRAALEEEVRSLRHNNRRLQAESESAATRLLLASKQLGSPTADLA
UniProt Q8WVK7, sequence (Q8WVK7 whole entry): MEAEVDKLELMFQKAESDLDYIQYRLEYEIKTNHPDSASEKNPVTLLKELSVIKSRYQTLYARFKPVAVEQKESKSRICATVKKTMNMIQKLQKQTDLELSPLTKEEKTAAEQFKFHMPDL

Target	thermal stability z-score (potassium arsenate)	thermal stability z-score (lipoamide; [1])	thermal stability z-score (lipoamide; arsenate co-treatment: none)
SFXN4 (UniProt Q6P4A7)	0.207	-1.11	-0.872
SGF29 (UniProt Q96ES7)	-1.03	0.571	0.347
SGK1 (UniProt O00141)	0.187	0.0815	-0.0515
SGMS2 (UniProt Q8NHU3)	-1.22	-1.39	-0.337
SGPL1 (UniProt O95470)	-0.584	0.442	0.255
SGPP1 (UniProt Q9BX95)	-0.0282	0.332	-0.299
SGTA (UniProt O43765)	0.149	0.332	0.487
SGTB (UniProt Q96EQ0)	-0.308	0.0457	0.112
SH2D3A (UniProt Q9BRG2)	0.0147	0.139	-0.263
SH2D4A (UniProt Q9H788)	0.112	0.0871	0.021
SH3BGRL3 (UniProt Q9H299)	0.000903	-0.0209	-0.395
SH3BGRL (UniProt O75368)	0.235	0.42	0.213
SH3BP4 (UniProt Q9P0V3)	-0.0405	0.0947	0.0993
SH3BP5 (UniProt O60239)	-0.00483	0.466	-0.17
SH3BP5L (UniProt Q7L8J4)	0.227	0.286	0.0604
SH3D19 (UniProt Q5HYK7)	0.228	0.277	0.225
SH3GL1 (UniProt Q99961)	0.538	-0.0464	0.144
SH3GL2 (UniProt Q99962)	0.00309	0.272	0.622
SH3GLB1 (UniProt Q9Y371)	0.658	-0.179	-0.0481
SH3GLB2 (UniProt Q9NR46)	0.364	-0.0875	0.468
SH3KBP1 (UniProt Q96B97)	-0.523	0.46	0.0841
SH3PXD2A (UniProt Q5TCZ1)	0.207	-0.325	-1.05
SH3PXD2B (UniProt A1X283)	-0.433	-0.428	-0.272
SH3RF1 (UniProt Q7Z6J0)	-0.327	-0.0346	0.00665

Target	thermal stability z-score (potassium arsenate)	thermal stability z-score (lipoamide; [1])	thermal stability z-score (lipoamide; arsenate co-treatment: none)
SHC1 (UniProt P29353)	0.126	-0.383	0.739
SHCBP1 (UniProt Q8NEM2)	-0.451	0.0159	0.0645
SHKBP1 (UniProt Q8TBC3)	-0.372	0.0505	0.242
SHMT1 (UniProt P34896)	0.764	0.374	-0.0345
SHMT2 (UniProt P34897)	0.0996	-0.198	-0.436
SHOC2 (UniProt Q9UQ13)	-0.00952	0.22	-0.229
SHQ1 (UniProt Q6PI26)	0.000909	-0.105	0.0326
SHROOM1 (UniProt Q2M3G4)	0.508	-0.159	-0.157
SHTN1 (UniProt A0MZ66)	1.25	1.1	0.75
SIAE (UniProt Q9HAT2)	0.741	0.527	0.537
SIDT2 (UniProt Q8NBJ9)	-1.91	-1.33	-1.46
SIGMAR1 (UniProt Q99720)	0.687	0.596	0.0865
SIL1 (UniProt Q9H173)	1.44	-3.15	-2.4
SIN3A (UniProt Q96ST3)	-0.303	-0.000782	0.0569
SIN3B (UniProt O75182)	-0.327	0.0836	0.279
SIPA1 (UniProt Q96FS4)	0.319	-0.295	0.0519
SIPA1L2 (UniProt Q9P2F8)	-0.149	0.197	0.0316
SIRT1 (UniProt Q96EB6)	-0.922	-0.368	-0.379
SIRT2 (UniProt Q8IXJ6)	-0.31	0.594	0.653
SIRT5 (UniProt Q9NXA8)	-1.02	-0.814	-1.26
SIRT6 (UniProt Q8N6T7)	-0.21	-0.0481	-0.176
SKA1 (UniProt Q96BD8)	-0.0935	-0.047	0.0119
SKA2 (UniProt Q8WVK7)	-0.271	-0.397	-0.0647
SKA3 (UniProt Q8IX90)	-0.18	-0.0726	0.132

Target	thermal stability z-score (potassium arsenate)	thermal stability z-score (lipoamide; [1])	thermal stability z-score (lipoamide; arsenate co-treatment: none)
SKIV2L2 (UniProt P42285)	0.0276	0.46	0.334
SKIV2L (UniProt Q15477)	0.2	-0.147	-0.384
SKP1 (UniProt P63208)	-0.000141	0.337	0.557
SKP2 (UniProt Q13309)	-0.872	-0.219	-0.122
SLAIN2 (UniProt Q9P270)	-0.0239	0.251	0.508
SLBP (UniProt Q14493)	-1.06	-0.736	0.179
SLC1A3 (UniProt P43003)	0.352	-0.157	0.124
SLC1A4 (UniProt P43007)	-0.588	-0.807	-0.485
SLC1A5 (UniProt Q15758)	0.00339	0.752	0.31
SLC2A1 (UniProt P11166)	0.124	0.651	0.659
SLC2A3 (UniProt P11169)	-0.293	0.481	0.126
SLC3A2 (UniProt P08195)	0.0559	0.528	0.49
SLC4A1AP (UniProt Q9BWU0)	-1.27	0.445	0.341
SLC4A2 (UniProt P04920)	0.173	0.115	0.433
SLC4A7 (UniProt Q9Y6M7)	-0.747	-0.0849	0.00104
SLC5A3 (UniProt P53794)	-1.12	-0.536	-0.363
SLC5A6 (UniProt Q9Y289)	0.342	-0.586	-0.512
SLC6A6 (UniProt P31641)	-0.649	-0.428	-0.488
SLC6A9 (UniProt P48067)	-0.636	-0.26	-0.8
SLC7A1 (UniProt P30825)	-0.33	0.364	-0.194
SLC7A2 (UniProt P52569)	0.647	0.412	-0.0842
SLC7A5 (UniProt Q01650)	1.47	1.39	1.19
SLC7A6 (UniProt Q92536)	-0.695	-0.86	-0.83
